Experimental data reported in patent publication US10849875B2, “Cancer specific lipid targeted peptidomimetics” (University of Houston System, priority 2015, dated 2020).
“Also recorded” adds a separate entry of the source. Positions of bridges follow the written chain, without caps; N, C: chain ends. Non-standard residues stand in square brackets, D forms with d. Residues, ends and D or L forms follow the SMILES beside them. Chains are numbered I, II in the order given. Gly(N-piperonyl) = O=C(O)CNCc1ccc2c(c1)OCO2; N(4-MeOBn)Gly = COc1ccc(CNCC(=O)O)cc1; Nrpe = C[C@@H](NCC(=O)O)c1ccccc1; Nlys = NCCCCNCC(=O)O

Experiments:
[1] = Lipid ELISA-like binding assay
Text: Structural features of PPS1and PS were compared to determine why PPS1 preferred PS over PC. PPS1 has three positive charged residues aligned together and a hydrophobic region with four consecutive aromatic rings (FIG. 9A). This can perfectly form both electrostatic and hydrophobic interactions with opposing negatively charged PS head groups and its hydrophobic tail regions.
(§1) One of the major questions arising at this point is how PPS1 or PPS1D1 specifically recognizes PS over PC, as both lipids have negatively charged phosphate head groups. To address this specificity concern, ELISA-like binding assay were expanded to include other membrane phospholipids such as phosphatidylethanolamine (PE), sphingomyelin (SM), phosphatidic acid (PA), phosphatidylinositol (PI) and phosphatidylglycerol (PG). […] This additional negative charge can be responsible for the interaction with the positively charged region of PPS1 or PPS1D1, while the hydrophobic regions of PPS1 or PPS1D1 may interact with hydrophobic tail groups of the lipids through van der Waals forces. […] The membrane was treated with biotin labeled PPS1D1 and binding was detected by immunoblotting with streptavidin-HRP. […] It has been reported that PS can form a bilayer lamellar and reverse hexagonal phase. PS is mainly in a lamellar phase after hydration at physiological pH. By validating our binding through an ELISA-like assay and liposomes, PPS1D1 has an equal opportunity to bind to each phase of PS.
Lipids (Avanti Polar Lipids) were dissolved in hexane at 10 μg/ml and coated on to Immulon 1B “U” bottom microtiter plates (ThermoFisher, MA). Hexane was evaporated at room temp (in the hood) and the plates were blocked with 200 μl of 1% BSA in PBS for 1 hour. Plates were washed with 3× PBS. […] Plates were washed with 5× PBS and binding was detected with streptavidin-HRP (1:2000 in blocking buffer) followed by 100 μl OPD (Sigma-Aldrich). The reaction was stopped with 100 μl 0.18M H2SO4 and absorbance was read at 490 nm using the spectrophotometer (Spectramax i3, Molecular Devices, CA).

[2] = Membrane lipid array (lipid dot blot); type: binding
Procedure: (FIGS. 11A and 11B). […] All of the bound lipids PS, PA, PI and PG have an overall negative charge as compared to unbound PC, PE and SM, which are neutral. This extra negative charge is responsible for interacting with positively charged region of PPS1, while the hydrophobic regions of both PPS1 and lipids may interact through van der Waals forces. […] The membrane was first blocked with 3% BSA in TBS-T for 1 hr. After washing with TBS-T, 2.5 μg/ml of biotin labeled PPS1D1 was added. Binding of biotin-PPS1D1 was detected by immunoblotting with streptavidin-HRP antibody. […] The binding affinity of PPS1D1 to PS appears to be strongest among all phospholipids as even at low lipid concentrations, PPS1D1 efficiently binds to it. (FIG. 11D). […] It is well documented that these phospholipids are predominantly present in the inner leaflet in normal cells. […] PC, PE, SM and PS are the most abundant phospholipids. Among these, only PS is an anionic phospholipid. PC and SM are present mostly in the outer leaflet, whereas PE and PS occupy most of inner leaflet with a variety of other anionic phospholipids. However, in stress conditions and in most tumor studied to date, PS and PE flip to the outer leaflet. PPS1D1 has six positively charged residues along with a hydrophobic region. […] However the binding affinity of PPSD1 to these anionic phospholipids is different. […] PPS1D1 could have a structure beyond a simple linear sequence contributing various levels of binding to PS, PA, PI and PG, maintaining highest binding affinity to PS.
Membrane lipid array: Membrane lipid arrays were purchased from Echelon Biosciences. Membranes were blocked in 3% BSA in TBS-T for one hour then incubated with 2.5 μg/ml of biotin-PPS1D1 for two hours. After washing unbound peptoid using TBS-T, bound biotin-PPS1D1 was detected by immunoblotting with Streptavidin-HRP antibody at 1:750 dilution (BioLegend).
as §1
Membrane lipid arrays were purchased from Echelon Biosciences, UT. Membranes were blocked in 3% BSA in TBST for 1 hour and then incubated with 2.5 μg/ml of biotin-PPS1D1 for 2 hours. Membranes were washed with TBST and incubated with Streptavidin-HRP antibody at 1:750 dilutions (BioLegend,CA). After washing, signal was detected with ECL western blotting substrate (Life technologies, CA) using Fluorchem 8900 (Alpha Innotech Imaging system).

[3] = test system: HCC4017, H460, HCC95, H1693, H1395 lung cancer cell lines; test: MTS cell viability assay on series of lung cancer cell lines; type: cell-based, human
Text: In this current study, the target of PPS1D1 is PS and HCC4017 strongly expresses PS. Our next goal was to evaluate the level of PS externalization on other lung cancer cell lines and the activity profile of PPS1D1 on those cell lines. A variety of lung cancer cell lines HCC4017 (lung adenocarcinoma), H460 (large cell lung cancer), H1395 (lung adenocarcinoma), HCC95 (squamous cell lung carcinoma), H1993 (adenocarcinoma; non-small cell lung cancer), H1695 and HBEC30KT (normal bronchial epithelial cells) were treated with fluorescein-labeled Annexin V (FITC-Annexin V) and the bound fluorescein signal was detected using flow cytometry. […] Standard cell viability (MTS) assay by treating these cell lines with PPS1D1 (1 and 20 μM) and 20 μM of a control compound PC462D1 (FIG. 68) in 96-well plates were performed. […] PPS1D1 had no effect on normal HBEC30KT cells at either concentration.
HCC4017, H460, HCC95, H1693, H1395 and HBEC30KT cells were grown in clear bottom 96 well plates. On second day, lung cancer cells were treated with PPS1, PPS1D1 and control PC462D1 in RPMI medium with 10% FBS containing 3% BSA. HBEC30KT was treated with PPS1, PPS1D1 and control PC462D1 in KSFM media with 3% BSA.

[4] = 2.5 μg/ml biotin labeled PPS1D1
[5] = 2.5 μg/ml biotin labeled PPS1D1, listed as PPSD1

COc1ccc(CN(CC(=O)N(CCCCN)CC(=O)N[C@@H](CCCCN)C(=O)N[C@H](CCCCN)C(=O)N[C@@H](CCSC)C(=O)NCCCC[C@H](NC(=O)[C@H](CCSC)NC(=O)[C@@H](CCCCN)NC(=O)[C@H](CCCCN)NC(=O)CN(CCCCN)C(=O)CN(Cc2ccc(OC)cc2)C(=O)CN(C(=O)CN(Cc2ccc3c(c2)OCO3)C(=O)CN[C@H](C)c2ccccc2)[C@H](C)c2ccccc2)C(N)=O)C(=O)CN(C(=O)CN(Cc2ccc3c(c2)OCO3)C(=O)CN[C@H](C)c2ccccc2)[C@H](C)c2ccccc2)cc1 [PPS1D1] (I: H-[Nrpe][Gly(N-piperonyl)][Nrpe][N(4-MeOBn)Gly][Nlys]K[dK]MK-NH2 / II: H-[Nrpe][Gly(N-piperonyl)][Nrpe][N(4-MeOBn)Gly][Nlys]K[dK]M; amide I:9-II:C; N-terminus assumed)
binding to PA [1]: displayed binding
binding to PG [1]: displayed binding
binding to PI [1]: displayed binding
binding to DAG [2, 4]: did not show binding; also recorded: does not bind
binding to PA [2, 4]: a little weaker binding
binding to PC [2, 4]: does not bind
binding to PE [2, 4]: does not bind
binding to PG [2, 4]: weaker binding
binding to PI [2, 4]: weaker binding
binding to PS [2, 4]: strongest binding affinity
binding to SM [2, 4]: does not bind
binding to PC [2, 5]: clearly not binding
binding to PE [2, 5]: clearly not binding
binding to PG [2, 5]: very weak level
binding to PI [2, 5]: very weak level
binding to SM [2, 5]: clearly not binding
cytotoxicity on lung cancer cell lines ([3]; 1 μM): not at 1 μM
cytotoxicity on lung cancer cell lines ([3]; 20 μM): strong cytotoxicity
